Entries after “also recorded” stand apart in the source; their conditions may differ.
Experiments:
[1] = tested on: C57BL/6 WT murine small intestine segments; assay: Ex vivo intestinal permeability (TEER) in the microsnapwell system; type: cell-based, mouse; conditions: for TEER change / intestinal permeability, dose-response experiment: C57BL/6 WT segments, zonulin 5-50 μg/well, trypsin-cleaved pre-HP2 50 μg/well
Procedure: The effect of zonulin/pre-HP2 on ex vivo intestinal permeability was monitored in the microsnapwell system as described (3). Briefly, segments of small intestine from C57BL/6 WT mice were mounted onto the microsnapwell system, and their luminal side was exposed for 30 min to medium alone or to the medium containing increasing concentrations of the purified recombinant zonulin. TEER was measured at time 0 and at 30-min time intervals for a period of 2 h using a planar electrode (Endohm SNAP electrode attached to an Evom-G WPI analyzer; World Precision Instruments) and expressed in Ω/cm^2 after normalization. […] In another set of experiments, zonulin was tested both in C57BL/6 WT and PAR2−/− mice. […]
Recombinant pre-HP2 (from now on defined as zonulin) was applied to WT C57BL/6 murine small intestine segments mounted in microsnapwells.

[2] = target: T1, PAR2 (Mus musculus, UniProt P55086); conditions: demonstrated in WT, but not PAR2−/− mice; cited from earlier work
T1 sequence (P55086 26-399): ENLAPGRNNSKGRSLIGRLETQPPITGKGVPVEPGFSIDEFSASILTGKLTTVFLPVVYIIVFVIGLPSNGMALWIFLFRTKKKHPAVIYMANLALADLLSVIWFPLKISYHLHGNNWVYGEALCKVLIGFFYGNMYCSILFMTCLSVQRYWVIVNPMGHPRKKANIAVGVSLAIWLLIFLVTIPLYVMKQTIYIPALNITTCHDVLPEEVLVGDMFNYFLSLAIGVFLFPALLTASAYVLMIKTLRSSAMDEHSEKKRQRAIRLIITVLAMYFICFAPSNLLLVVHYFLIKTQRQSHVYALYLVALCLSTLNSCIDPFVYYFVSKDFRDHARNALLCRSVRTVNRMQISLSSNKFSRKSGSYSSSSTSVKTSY

[3] = target: T2, EGFR (Homo sapiens, UniProt P00533); assay: EGFR phosphorylation in serum-starved Caco-2 cells (immunoprecipitation / Western blot); type: cell-based; conditions: for EGFR phosphorylation compared with single chain zonulin: two-chain mature HP2 10 ml/ml as printed, Caco-2, FIG. 5D
T2 construct: serum-starved, high EGFR-expressing Caco-2 cells; endogenous in cells; host or cells: Caco-2
Procedure: PAR2 expression in Caco-2 cells was silenced using 2 different PAR2 siRNAs [HSS103471 and HSS103473 (50 nM each); Invitrogen].
The effect of zonulin on ex vivo and in vivo intestinal permeability was performed as described (8, 14) and reported above. To determine whether zonulin can activate EGFR, increasing concentrations of either zonulin or two-chain mature HP2 were added for increasing exposure times to serum-starved, high EGFR-expressing Caco-2 cells. The cells were lysed and processed for WB with anti-phospho EGFR (Y1068) Ab (Cell Signaling Technol. Inc.) as reported (40).
To determine whether zonulin can activate EGFR, increasing concentrations of baculovirus-derived, recombinant zonulin were added to Caco-2 intestinal epithelial cells. The cells were lysed, immunoprecipitated with anti-EGFR Ab, and processed for phosphotyrosine immunoblotting (PY-Plus).

[4] = tested on: 129/SvEv WT mice; assay: In vivo gastrointestinal permeability with sugar probes (lactulose/mannitol, sucrose); set-up: species or system mouse; conditions: for small intestinal permeability (lacman ratio) vs BSA-treated controls / gastroduodenal permeability (sucrose fractional excretion) vs BSA-treated controls: 170 mg/mouse [sic], gavage, challenge day vs 3 days before; for small intestinal permeability (lacman ratio) vs BSA-treated controls: FIG. 4A; for gastroduodenal permeability (sucrose fractional excretion) vs BSA-treated controls: FIG. 4B
Procedure: They were acclimatized to the experimental techniques for 3 wk, by fasting the animals for 3 h, gavaging the animals with a sugar probe, and placing them in metabolic cages twice each wk. On the day of protein challenge, the animals received either 170 micrograms of the purified single-chain zonulin in a 60 microliter solution or a similar amount of purified 2-chain cleaved HP2, together with the sugar gavage as described (4). […] Two days after the drug challenge day, mice were again placed in metabolic cages to measure their recovery from the treatment.
To establish whether zonulin might alter intestinal permeability in vivo, mice were gavaged with the single chain recombinant pre-HP2 protein (170 mg/mouse), and gastroduodenal and small intestinal permeability tested using specific sugar probes (sucrose and lactulose/mannitol, respectively) as described (14).

With `COc1cc2ncnc(Nc3cccc(Cl)c3)c2cc1OC` [AG1478, reference compound] the “effect on zonulin-induced drop in TEER” value ([1]; 5 μM AG1478 with zonulin 10 μg/well, C57BL/6 WT, 90 min, FIG. 5C) was “abolished TEER reduction; also recorded: prevented”.

In the case of FCIGRL [AT1002], the “changes in TEER” value [2] is listed as “PAR2-dependent changes in TEER”.

In the case of “zonulin: Recombinant human haptoglobin-2 precursor (pre-HP2), uncleaved single chain, expressed in a baculovirus system”, the “concentration at which tyrosine phosphorylation of EGFR increased” value ([3]; Caco-2 cells, anti-EGFR IP, PY-Plus blot, FIG. 5A) is reported as at least 3 mg/mL, the “concentration at which the dose-dependent increase in EGFR phosphorylation reached a plateau” value ([3]; serum-starved Caco-2 cells, FIG. 5A) is reported as 3 ml/ml and the “EGFR phosphorylation vs media” value ([3]; zonulin 10 ml/well as printed, alone, serum-starved Caco-2, FIG. 5B) is reported as “increase in EGFR phosphorylation”. For the same molecule, the “small intestinal permeability (lacman ratio) vs BSA-treated controls” value [4] was “increases”, the “small intestinal permeability (lacman ratio) vs BSA-treated controls” value ([4]; listed as Zonulin/preHP2) was “increased” and the “gastroduodenal permeability (sucrose fractional excretion) vs BSA-treated controls” value [4] was “increases”. For the same molecule, the “gastroduodenal permeability (sucrose fractional excretion) vs BSA-treated controls” value ([4]; listed as Zonulin/preHP2) was “increased”, the “time for small intestinal permeability to return to pre-challenge values” ([4]; after zonulin challenge, FIG. 4C) was at most 48 h and the “time for gastroduodenal permeability to return to pre-challenge values” ([4]; after zonulin challenge, FIG. 4D) was at most 48 h. For the same molecule, the “TEER change / intestinal permeability, dose-response experiment” value ([1]; FIG. 3) was “increased intestinal permeability in C57BL/6 WT mice in a dose-and time-dependent manner”, the “TEER change in wild-type intestinal segments” value ([1]; C57BL/6 WT, 10 μg/well, baseline vs 90 min, FIG. 5C, 6B) was “decreased TEER; also recorded: significant drop in TEER” and the “TEER change in PAR2−/− intestinal segments” value ([1]; PAR2−/− mice, 10 mg zonulin as printed, time 0 vs 90 min, FIG. 6B) was “failed to reduce TEER; also recorded: did not increase intestinal permeability”. For the same molecule, the “concentration at which TEER decreased (increased permeability)” value ([1]; added to mucosal (luminal) aspect of WT C57BL/6 small intestine segments, FIG. 3) was at least 40 µg/mL and the “concentration inducing significant drop in TEER” value ([1]; luminal side, C57BL/6 WT, starting at 60 min post-exposure, tested 5, 10, 25, 50 μg/well, FIG. 3) was 10 μg/well.

B1: two-chain HP2: Cleaved two-chain mature HP2 (α2 and β chains) obtained by trypsin digestion of single chain zonulin (protein)
chain 1: VDSGNDVTDIADDGCPKPPEIAHGYVEHSVRYQCKNYYKLRTEGDGVYTLNDKKQWINKAVGDKLPECEADDGCPKPPEIAHGYVEHSVRYQCKNYYKLRTEGDGVYTLNNEKQWINKAVGDKLPECEAVCGKPKNPANPVQR
chain 2: ILGGHLDAKGSFPWQAKMVSHHNLTTGATLINEQWLLTTAKNLFLNHSENATAKDIAPTLTLYVGKKQLVEIEKVVLHPNYSQVDIGLIKLKQKVSVNERVMPICLPSKDYAEVGRVGYVSGWGRNANFKFTDHLKYVMLPVADQDQCIRHYEGSTVPEKKTPKSPVGVQPILNEHTFCAGMSKYQEDTCYGDAGSAFAVHDLEEDTWYATGILSFDKSCAVAEYGVYVKVTSIQDWVQKTIAENHHHHHH
With B1 the “EGFR phosphorylation compared with single chain zonulin” value [3] was “dramatically reduced”, the “EGFR phosphorylation compared with single chain zonulin” value ([3]; listed as two-chain mature HP2) was “significantly reduced” and the “small intestinal permeability (lacman ratio) vs BSA-treated controls” value [4] was “failed to alter; also recorded: no changes”. For the same molecule, the “gastroduodenal permeability (sucrose fractional excretion) vs BSA-treated controls” value [4] was “failed to alter; also recorded: no changes” and the “TEER change / intestinal permeability, dose-response experiment” value ([1]; FIG. 3) was “no consistent TEER changes”.
